Results published in patent US20250282770A1, “BIOLUMINESCENT PROBES TO TRACK STEM CELLS IN VIVO” (THE BOARD OF TRUSTEES OF THE UNIVERSITY OF ILLINOIS, priority 2024, published 2025).

Experiments:
[1] = Stability in PBS or serum-containing media; type: physicochemical
[2] = Stability of AlDeLuc at acidic, neutral and alkaline pHs; type: physicochemical; conditions: 2 μM, then ALDH1A1 and luciferase
Protocol: Stability of AlDeLuc at Acidic, Neutral and Alkaline pHs. The stability of AlDeLuc (2 μM) to acidic, neutral and alkaline conditions were investigated in a black 96-well plate and monitored using the IVIS imaging system. AlDeLuc was incubated in 1 M HCl (acidic), 1 M NaCl (neutral, pH=7), or 1 M NaOH (alkaline) for one hour, neutralized, and diluted with 0.1 M potassium phosphate buffer (pH 7.4). To the black well-plate was added PBS (pH 7.4), NAD^+ (1 mM), ALDH1A1 (0.4 μM), and either the acidic-, neutral-, or alkaline-treated AlDeLuc. Immediately after, each well was treated with ATP-MgSO4 (45 μL, prepared by mixing 17.78 mM ATP-Mg and 35.56 mM MgSO4 in a 1:1 ratio in PBS buffer) and luciferase (5 μL, 1 mg/mL in PBS containing 10% glycerol) to initiate bioluminescence production. Light was collected immediately after mixing, and the signal enhancement was determined relative to control wells not treated with AlDeLuc. The total volume of each well was 200 μL (PBS (pH 7.4) with 0.2% DMSO). All data reported as the mean±standard deviation.

ALDH1A1 activity = assay: High-fat diet inflammatory model, orthotopic 4T1-Luc tumors, AlDeLuc imaging after L-NMMA; type: in vivo, BALB/c mice; conditions: control group (water gavage), AlDeLuc 0.55 mg/kg, 40 min
Protocol: Finally, to examine how NO influences ALDH1A1 activity in vivo we placed BALB/c mice (female, 5-7 weeks old) on a high-fat diet for 40 weeks to induce an inflammatory response through elevated NO production. This period consists of a ˜20-week priming period prior to inoculation of the animals with 4T1-Luc cells at the mammary fat pad. At this point, the mice were randomized into two groups. The treatment group was administered L-NMMA (50 mg/kg), whereas the control group received water via oral gavage for 20 days. The day after the final treatment, mice from both conditions were treated systemically with AlDeLuc, and the bioluminescence was monitored (FIG. 5e). […] At the completion of the diet study, animals were sacrificed, and their tumors were excised for further immunohistochemical analysis.
Generation of an Orthotopic 4T1-Luc Breast Cancer Model for Diet Studies. Female BALB/c mice (˜6 weeks old) were inoculated with 4T1-Luc cells (50 μL of 1×10^5 cells in 1:1 v/v serum-free RPMI 1640 media and Matrigel) via subcutaneous injections into the mammary fat pad. Tumor volumes were measured using the caliper method every three days. Body weight was measured daily over the course of the experiment.

[3] = system: A549 human lung carcinoma cells; assay: AlDeLuc activation in A549 cells, lysate bioluminescence; type: cell-based
Protocol: Validation of ALDH-Mediated Activation of AlDeLuc in Human Lung Cancer Cells. A549 cells were cultured in T75 culture flasks. After two days, cells had become ˜90% confluent. An aliquot of HAMS FK12 media (1 mL) was removed from each flask and replaced with either disulfiram (DSF) (100 μM, 0.5% DMSO) or vehicle (0.5% DMSO). After incubation for one hour, the solutions were aspirated, the cells were washed with PBS, and resuspended in fresh HAMS FK12 media (9 mL). Each flask was then incubated with the AlDeLuc such that the final concentration of the probe is 100 µM and 1% DMSO. After 60 minutes this solution was aspirated, washed with fresh PBS, and detached from the culture flasks. The cells were then transferred to a 15 mL centrifuge tube and pelleted at 1000 rpm for 5 minutes at room temp. The cells were resuspended in PBS along with 10% protease inhibitor solution (1 protease inhibitor mini tablet per 10 mL of PBS, Pierce, Thermo Fisher Scientific) and sonicated on ice for 2.5 minutes (pulse 01, 01, 40%). […] ROIs were drawn around each well and the signal intensity was quantified using the Living Image Analysis software.
Determining Sensitivity of AlDeLuc by Cell Concentration Changes. […] ROIs were drawn around each well and the signal intensity was quantified using the Living Image Analysis software.

[4] = Evaluation of acetal response to 1 M HCl; type: physicochemical; conditions: 100 μM; 1 M HCl for one hour; ALDH1A1 0.4 μM; compared among 9, 10, 11
Protocol: Evaluation of Acetal Response to 1 M HCl. To identify the most robust turn-on to be utilized for this study, compounds 9, 10, and 11 were tested for their ability to be deprotected under acidic conditions. Each acetal was dissolved in DMSO and subjected to equal-volume 1 M HCl and incubated at room temperature for 60 minutes. After this time, each solution was neutralized with 1 M NaOH and diluted to a concentration of 1 mM with PBS. In a black 96-well plate, PBS, NAD^+ (2.5 mM), ALDH1A1 (0.4 μM), and either compound 9, 10 or 11 (100 μM) were added. After 5 minutes, each well was treated with ATP-MgSO4 (45 μL, prepared by mixing 17.78 mM ATP-Mg and 35.56 mM MgSO4 in a 1:1 ratio in PBS buffer) and luciferase (5 μL, 1 mg/mL in PBS containing 10% glycerol) to initiate bioluminescence production. Light was collected immediately after mixing, and the signal enhancement was determined relative to control wells containing no probe or enzymes. The total volume of each well was 200 μL (PBS (pH 7.4) with 0.5% DMSO). All data reported as the mean±standard deviation (n=4).

## CCN(CC)c1ccc2nc(C3=N[C@@H](C(OC)OC)CS3)sc2c1 [AlDeLuc, (S)-2-(4-(dimethoxymethyl)-4,5-dihydrothiazol-2-yl)-N,N-diethylbenzo[d]thiazol-6-amine]
[1]; PBS
  hydrolysis: does not hydrolyze
[1]; serum-containing media
  hydrolysis: does not hydrolyze
[2]; 1 M NaCl (neutral) one hour
  bioluminescence (acetal unmasking): no bioluminescence
[2]; 1 M NaOH (alkaline) one hour
  bioluminescence (acetal unmasking): no bioluminescence
ALDH1A1 activity
  total luminescent counts: 1.7±0.8×10^4
[3]; 3.6×10^6 A549 cells, 100 μM, 60 min
  bioluminescence intensity increase: 56 fold
[3]; ~1.25×10^5 A549 cells, 20 μM, one hour
  light emission relative to vehicle controls: 22.1 fold
[4]
  acid resistance of acetal (bioluminescence emission after HCl, neutralization, ALDH1A1 and luciferase): most acid-resistant
